Assay results published in patent US8362071B2, “Antiadhesion agents” (The Ohio State University Research Foundation, priority 2009, dated 2013).
“Also recorded” adds a separate entry of the source. Like-named read-outs stand apart in the source and are kept apart here.

Legend:
[1] = tested on: 4T1 cells; experiment: Transwell (Boyden chamber) migration assay, serum-induced; format: cell-based, mouse; conditions: FIG. 3A
Protocol: Migration Assay. 4T1 cells were trypsinized for 5 min, washed, and suspended in 0.2% FBS-supplemented RPMI 1640 medium. Five×10^4 cells in 0.5 ml of 0.2% FBS-supplemented RPMI medium containing individual test agents at the indicated concentrations were added to the upper chamber (i.e., insert) of each Transwell system (12 mm, polycarbonate, 12-μm pore, Millipore) in a 24-well plate, and incubated at 37° C. in a CO2 incubator for 30 min. The inserts were then switched to a new well containing 10% FBS-supplemented RPMI 1640 medium for 24 h. All cells in each well were fixed with 10% formalin followed by staining with 0.5% crystal violet. To quantify migrated cells, cells attached to the bottom side of the upper chamber and in the bottom of the well were wiped with a moistened cotton swab, which was then rinsed with 80 μl DDW. The cells were then dissolved by the addition of 320 μl 100% methanol. Enumeration of non-migrated cells was done by placing the chamber into 400 μl of 80% methanol, and incubating for 30 min in an orbital shaker. Absorbance at 570 nm was measured in an ELISA plate reader. Percentage of cell migration in each well was calculated using the following equation: % of migration=100×[(O.D. of migrated cells)−(O.D. of background)]/{[(O.D. of migrated cells)−(O.D. of background)]+[(O.D. of non-migrated cells)−(O.D. of background)]}. The migration activity in each treatment group is expressed as a percentage of that in the vehicle controls, which was considered to be 100%.

[2] = tested on: 4T1 metastatic breast cancer cells; experiment: Adhesion assay: 4T1 cell adhesion to a Matrigel-coated surface; format: cell-based, mouse; conditions: for anti-adhesion potency (in words) / anti-adhesion activity relative to VES (FIG. 2A, in words): 4T1 cells, Matrigel-coated surface; for anti-adhesion activity relative to VES (FIG. 2A, in words): each at 5 μM
Protocol: Adhesion Assay. Ninety six-well plates were coated with 12% (v/v) Matrigel (BD Biosciences) at 37° C. for 1 hour, washed twice with washing buffer (0.1% BSA-containing RPMI medium) followed by blocking with 0.5% BSA-containing RPMI medium at 37° C. for 60 minutes. 4T1 cells were treated with individual derivatives at the indicated concentrations at 37° C. in a CO2 incubator for 60 minutes, and 2×10^4 cells in 100 μl were seeded in each well. Cells were allowed to adhere to the Matrigel-coated surface for 30 min at 37° C., and nonadherent cells were removed by gentle washing with the aforementioned washing buffer. Adherent cells were fixed with 10% formalin, stained with 0.5% crystal violet, and dissolved in 2% SDS. Absorbance at 570 nm was measured in an ELISA plate reader (Molecular device, Sunnyvale, Calif.).

[3] = tested on: focal adhesion kinase (FAK); experiment: FAK protein stability by Western blotting; format: cell-based, mouse; conditions: each at 5 μM, 4T1 cells, 1 h
Protocol: (§1) VES derivatives target focal adhesion kinase (FAK) degradation. Considering the important role of FAK in regulating the formation of focal adhesions and actin stress fibers (McLean et al., Nat Rev Cancer 5, 505-15 (2005)), the effect of compound 2 on focal adhesion sites in 4T1 cells was assessed by immunostaining with anti-FAK antibodies, the results of which are shown in FIG. 4A. […] It is noteworthy that the disruption of actin stress fibers and focal adhesion by compound 2 is reminiscent of that induced by mannitol in neuroblastoma cells. Kim et al. J Biol Chem 277, 27393-400 (2002). As mannitol-induced cytoskeletal changes were preceded by the degradation of FAK, the effects of compound 2 relative to VES, TS-1, and compounds 1 and 3, each at 5 μM, on FAK protein stability in 4T1 cells was investigated by Western blotting.

[4] = tested on: breast tumor; conditions: animal models; Hahn et al. 2006; cited from earlier work
[5] = tested on: 4T1 cells; experiment: F-actin immunostaining (actin cytoskeletal structure); format: cell-based, mouse; conditions: for reduction in the fluorescent intensity of F-actin relative to the DMSO control: 4 h, 4T1 cells; for effect on actin cytoskeleton (stress fibers, lamellipodia; in words): 4 hours of exposure, FIG. 3B
Protocol: F-actin Immunostaining To assess the effect of test compounds on actin cytoskeletal structures, cells were seeded onto coverslips in six-well plates and incubated overnight, followed by exposure to individual agents at the indicated concentrations for 4 h in 2% FBS-containing RPMI 1640 medium. Cells were then fixed in 3.7% formaldehyde, permeabilized with PBS containing 0.1% Triton X-100 and 0.1% BSA for 1 h, and then incubated with Alexa Fluor 488 phallotoxin staining solution (Molecular Probes, Inc., Eugene, Oreg.) for 30 min. Nuclear counterstaining was achieved by use of 4,6-diamidino-2-phenylindole (DAPI)-containing mounting medium. Immunocytochemically labeled cells were visualized and images captured using a Zeiss microscope (LSM510) with Argon and HeNe lasers, appropriate filters (excitation wavelengths were 488 nm and 543 nm), and a 63×1.4 numerical aperture water immersion lens. Differences in fluorescence intensity were calculated from comparisons of the control sample with each of the treatment samples under the same threshold using MacBiophotonic ImageJ software (National Institutes of Health) and were expressed as percentages of the fluorescent intensity of the untreated control. Statistical significance was evaluated using Student's t-test and considered significant at P<0.05.

[6] = tested on: focal adhesion kinase (FAK); experiment: Focal adhesion sites by immunostaining with anti-FAK antibody; format: cell-based, mouse; conditions: 2.5 μM, 1 h, 4T1 cells
Protocol: as §1

[7] = Mus musculus, 4T1, adhesion to Matrigel-coated surface, FIG. 2B, read-out: IC50, inhibiting 4T1 cell adhesion

| SMILES | anti-adhesion potency (in words) [2] | FAK degradation (in words) [3] | inhibition of serum-induced 4T1 cell migration (in words) ([1]; 5 μM) | IC50 [2, 7] [nM] | also measured |
| --- | --- | --- | --- | --- | --- |
| Cc1c(C)c2c(c(C)c1OC(=O)CCC(=O)O)CC[C@@](C)(CCC[C@H](C)CCC[C@H](C)CCCC(C)C)O2 [VES, α-tocopheryl succinate, reference compound] | modest inhibitory effect | less evident or not appreciable |  |  | inhibition of serum-induced 4T1 cell migration (in words) ([1]; 50 μM): little effect |
| Cc1c(C)c2c(c(C)c1OC(=O)CCC(=O)O)CCC(C)(C=CCC(C)CCCC(C)C)O2 (stereo not shown) [compound 1, Succinic acid mono-[2-(4,8-dimethyl-non-1-enyl)-2,5,7,8-tetramethyl-chroman-6-yl]ester] | multifold improvement in the anti-adhesion potency |  | effective in inhibiting cell migration | 1300 |  |
| Cc1c(C)c2c(c(C)c1OCC(=O)O)CCC(C)(CCCC(C)CCCC(C)CCCC(C)C)O2 (stereo not drawn) [α-tocopheryloxyacetic acid] |  |  |  |  | effect on breast tumor growth and lung metastasis (in words) [4]: suppress breast tumor growth and to reduce lung metastasis |
| Cc1c(C)c2c(c(C)c1OC(=O)CCC(=O)O)CCC(C)(CCCC(C)C)O2 (stereo not shown) [TS-2] | substantially improved potency vis-à-vis VES |  |  |  | anti-adhesion activity relative to VES (FIG. 2A, in words) [2]: to a lesser extent |
| Cc1c(C)c2c(c(C)c1OCC(=O)O)CCC(C)(CCCC(C)CCCC(C)C)O2 (stereo not shown) [compound 3, [2-(4,8-Dimethyl-nonyl)-2,5,7,8-tetramethyl-chroman-6-yloxy]-acetic acid] |  |  | effective in inhibiting cell migration | 2000 | reduction in the fluorescent intensity of F-actin relative to the DMSO control ([5]; 10 μM): 70%; effect on actin cytoskeleton (stress fibers, lamellipodia; in words) ([5]; 10 μM): rapid dissolution of stress fiber and impairment of lamellipodia formation |
| Cc1c(C)c2c(c(C)c1OC(=O)CCC(=O)O)CCC(C)(CCCC(C)CCCC(C)C)O2 (stereo not shown) [TS-1] | substantially improved potency vis-à-vis VES | less evident or not appreciable | little effect |  | IC50 ([2]; adhesion to Matrigel-coated surface, FIG. 2B, read-out: IC50, inhibiting 4T1 cell adhesion): 2500 nM; anti-adhesion activity relative to VES (FIG. 2A, in words) [2]: significantly improved potencies |
| Cc1c(C)c2c(c(C)c1OCC(=O)O)CCC(C)(C=CCC(C)CCCC(C)C)O2 (stereo not shown) [compound 2, [2-(4,8-Dimethyl-non-1-enyl)-2,5,7,8-tetramethyl-chroman-6-yloxy]-acetic acid] |  | induced FAK degradation | effective in inhibiting cell migration | 600 | reduction in the fluorescent intensity of F-actin relative to the DMSO control ([5]; 5 μM): 84%; effect on actin cytoskeleton (stress fibers, lamellipodia; in words) ([5]; 5 μM): rapid dissolution of stress fiber and impairment of lamellipodia formation; effect on focal adhesion sites (FAK punctate staining; in words) [6]: loss of focal adhesion sites; also recorded: no longer detectable; IC50 ([2]; Mus musculus, 4T1, summary statement b23, read-out: IC50, blocking the adhesion of 4T1 metastatic breast cancer cells): 600 nM |
